Assay results as given in US20110028490A1, “4-PHENYL-PIPERAZIN-1-YL-ALKYL-BENZOIMIDAZOL-2-ONE DERIVATIVES AND THEIR USE AS MONOAMINE NEUROT[…]-UPTAKE IN-HIBITORS” (N[…]/S, priority 2008, published 2011).
Structures can show the parent of a compound that is named as a salt.

Legend:
Assay type in all cases: biochemical
[1] = tested on: serotonine (5-HT) reuptake in synaptosomes; assay: Inhibition of 5-HT reuptake in synaptosomes; details: 3H-5-HT, read-out: 5-HT-uptake IC50
Method: (§1) Compounds were tested for their ability to inhibit the reuptake of the monoamine neurotransmitters dopamine (DA) noradrenaline (NA) and serotonine (5-HT) in synaptosomes as described in WO 97/16451 (NeuroSearch A/S).
(§2) The test values are given as IC50 (the concentration (μM) of the test substance which inhibits the specific binding of ^3H-DA, ^3H-NA, or ^3H-5-HT by 50%).

[2] = tested on: dopamine (DA) reuptake in synaptosomes; assay: Inhibition of DA reuptake in synaptosomes; details: 3H-DA, read-out: DA-uptake IC50
Method: as §1, §2

[3] = tested on: noradrenaline (NA) reuptake in synaptosomes; assay: Inhibition of NA reuptake in synaptosomes; details: 3H-NA, read-out: NA-uptake IC50
Method: as §1, §2

| Compound | IC50 [1] [nM] | IC50 [2] [nM] | IC50 [3] [nM] |
| --- | --- | --- | --- |
| O=c1n(CCN2CCN(c3ccc(Cl)cc3)CC2)c2ccccc2n1C1=CCCCC1 [Compound A3, 1-{2-[4-(4-Chloro-phenyl)-piperazin-1-yl]-ethyl}-3-cyclohex-1-enyl-1,3-dihydro-benzoimidazol-2-one fumaric acid salt] | 22 | 430 | > 1000 |
| C=C(C)n1c(=O)n(CCN2CCN(c3ccc(Cl)c(Cl)c3)CC2)c2ccccc21 [Compound A1, 1-{2-[4-(3,4-Dichloro-phenyl)-piperazin-1-yl]-ethyl}-3-isopropenyl-1,3-dihydro-benzoimidazol-2-one fumaric acid salt] | 1 | 1100 | 1070 |
